Laboratory results taken from PubChem BioAssay (NCI).
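Compound exposure: 48 hours, 5 concentrations, 96-well plates. Abbreviation: GI50, concentration required for 50% inhibition of growth. Definition used: TGI = concentration required for complete inhibition of growth.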

What was measured:
Experiment in all cases: NCI anticancer screen, dose series, 48 h
OVCAR-5 ovarian = tested on: OVCAR-5 ovarian
HOP-92 NSCLC = tested on: HOP-92 NSCLC
HL-60(TB) leukemia = tested on: HL-60(TB) leukemia
HCT-116 colon = tested on: HCT-116 colon
COLO 205 colon = tested on: COLO 205 colon
SF-539 CNS = tested on: SF-539 CNS
U251 CNS = tested on: U251 CNS
SK-MEL-28 melanoma = tested on: SK-MEL-28 melanoma
SR leukemia = tested on: SR leukemia
BT-549 breast = tested on: BT-549 breast

## Cc1ccc(NC(=O)Nc2c(Cl)cccc2Cl)cn1
OVCAR-5 ovarian
  GI50: 72.9 µM
  TGI: > 100 µM
HOP-92 NSCLC
  GI50: 16.8 µM
  TGI: > 100 µM
HL-60(TB) leukemia
  GI50: 4.23 µM
  TGI: 29.7 µM
HCT-116 colon
  GI50: 11.1 µM
  TGI: > 100 µM
COLO 205 colon
  GI50: 3.61 µM
  TGI: 24.3 µM
SF-539 CNS
  GI50: 5.24 µM
  TGI: > 100 µM
U251 CNS
  GI50: 5.07 µM
  TGI: > 100 µM
SK-MEL-28 melanoma
  GI50: 58.2 µM
  TGI: > 100 µM
SR leukemia
  GI50: 3.89 µM
  TGI: 22.7 µM
BT-549 breast
  GI50: 59.1 µM
  TGI: > 100 µM

## COc1ccc(C(=O)O[C@H]2[C@H](O[C@H]3[C@@H](O)COC(O[C@H]4C[C@H]5[C@@H]6CC=C7C[C@@H](O)CC[C@]7(C)[C@H]6CC[C@]5(C)[C@H]4[C@H](C)C(=O)CCC(C)C)[C@@H]3OC(C)=O)OC[C@@H](O)[C@@H]2O)c(C)c1 (some centres undefined)
OVCAR-5 ovarian
  GI50: 0.103 µM
  TGI: 26.9 µM
HOP-92 NSCLC
  GI50: < 0.01 µM
  TGI: 0.0866 µM
HL-60(TB) leukemia
  GI50: 0.0133 µM
  TGI: 28.2 µM
HCT-116 colon
  GI50: < 0.01 µM
  TGI: 15.8 µM
COLO 205 colon
  GI50: 0.0178 µM
  TGI: 0.133 µM
SF-539 CNS
  GI50: < 0.01 µM
  TGI: < 0.01 µM
U251 CNS
  GI50: < 0.01 µM
  TGI: 18.7 µM
SK-MEL-28 melanoma
  GI50: < 0.01 µM
  TGI: < 0.01 µM
SR leukemia
  GI50: < 0.01 µM
  TGI: > 100 µM
BT-549 breast
  GI50: < 0.01 µM
  TGI: 10.7 µM

## O=c1c2ccccc2nc(-c2ccccc2Cl)n1-c1nnc(C(F)(F)F)s1
OVCAR-5 ovarian
  GI50: 4.33 µM
  TGI: 43.8 µM
HOP-92 NSCLC
  GI50: 0.514 µM
  TGI: 3.43 µM
HL-60(TB) leukemia
  GI50: 2.38 µM
  TGI: 8.51 µM
HCT-116 colon
  GI50: 2.7 µM
  TGI: 10.1 µM
COLO 205 colon
  GI50: 3.86 µM
  TGI: 21.3 µM
SF-539 CNS
  GI50: 3.21 µM
  TGI: 13 µM
U251 CNS
  GI50: 2.46 µM
  TGI: 12.9 µM
SK-MEL-28 melanoma
  GI50: 4.63 µM
  TGI: 90.9 µM
SR leukemia
  GI50: 3.73 µM
  TGI: 24.6 µM
BT-549 breast
  GI50: 3.36 µM
  TGI: 10.9 µM

## CCN(CC)CCN1C(=O)C2C3C(=O)CC(C)(CC3C)C2C1=O (centres undefined)
OVCAR-5 ovarian
  GI50: > 100 µM
  TGI: > 100 µM
HOP-92 NSCLC
  GI50: > 100 µM
  TGI: > 100 µM
HL-60(TB) leukemia
  GI50: > 100 µM
  TGI: > 100 µM
HCT-116 colon
  GI50: > 100 µM
  TGI: > 100 µM
COLO 205 colon
  GI50: > 100 µM
  TGI: > 100 µM
SF-539 CNS
  GI50: > 100 µM
  TGI: > 100 µM
U251 CNS
  GI50: > 100 µM
  TGI: > 100 µM
SR leukemia
  GI50: > 100 µM
  TGI: > 100 µM
BT-549 breast
  GI50: > 100 µM
  TGI: > 100 µM

## CC[C@]1(O)CC2CN(CCc3c([nH]c4ccccc34)[C@@](C(=O)OC)(c3cc4c(cc3OC)N(C=O)[C@H]3[C@@](O)(C(=O)OC)[C@H](OC(C)=O)[C@]5(CC)C=CCN6CC[C@]43[C@@H]65)C2)C1 (some centres undefined)
OVCAR-5 ovarian
  GI50: 0.0253 µM
  TGI: > 50 µM
HOP-92 NSCLC
  TGI: > 50 µM
HCT-116 colon
  GI50: < 0.005 µM
  TGI: > 50 µM
COLO 205 colon
  GI50: < 0.005 µM
  TGI: < 0.005 µM
SF-539 CNS
  GI50: < 0.005 µM
  TGI: > 17.9 µM
U251 CNS
  GI50: < 0.005 µM
SK-MEL-28 melanoma
  GI50: < 0.005 µM
  TGI: > 50 µM
SR leukemia
  GI50: < 0.005 µM
  TGI: > 50 µM
BT-549 breast
  GI50: 0.00665 µM
  TGI: 0.149 µM

## NC(=O)CC1(O)C=C(Br)C(=O)C(Br)=C1
OVCAR-5 ovarian
  GI50: 8.08 µM
  TGI: 21.4 µM
HOP-92 NSCLC
  GI50: 1.85 µM
  TGI: 4.26 µM
HL-60(TB) leukemia
  GI50: 1.85 µM
  TGI: 4.64 µM
HCT-116 colon
  GI50: 0.392 µM
  TGI: 10.7 µM
COLO 205 colon
  GI50: 1.25 µM
  TGI: 2.63 µM
SF-539 CNS
  GI50: 2.95 µM
  TGI: 9.15 µM
U251 CNS
  GI50: 10.6 µM
  TGI: 24.1 µM
SK-MEL-28 melanoma
  GI50: 1.87 µM
  TGI: 3.7 µM
SR leukemia
  GI50: 1.7 µM
  TGI: 14.2 µM
BT-549 breast
  GI50: 1.91 µM
  TGI: 6.97 µM
